According to US8835415B2, “Standardized composition, method of manufacture and use in the resolution of RNA virus infection” (priority 2009, dated 2014):

Experiments:
HIV-1 (R5 tropic virus) = type: cell-based; conditions: CCR5 trophic virus, PBMC
HIV-1 (X4 tropic virus) = experiment: microbe, parasite or virus in culture; type: cell-based; conditions: CXCR4 trophic virus, PBMC
[1] = system: H1N1 virus, Sensitive strain (676); experiment: Plaque reduction assay in MDCK cells, H1N1 sensitive strain; type: cell-based; conditions: Influenza A virus, Tamiflu
[2] = system: Sheep Red Blood Cells (SRBCs); type: in vivo, Swiss albino mice; conditions: Cyclophosphamide 25 mg/kg p.o alone
Protocol: Swiss albino mice of either sex were divided into 5 groups with six animals per group based on the treatment they received.
On Day 0, all five groups were sensitized with Sheep Red Blood Cells (SRBCs) containing 1×10^8 cells in normal saline. […] On Day 7, blood samples were collected from each mouse in the five groups by retro orbital puncture for the determination of primary antibody titre. Subsequently on day 7, after the blood withdrawal, the mice were challenged with 0.1 ml of SRBCs into the foot pad. On Day 14, blood samples were collected from each mouse by retro orbital puncture for the determination of secondary antibody titre.

Cc1cn([C@H]2C[C@H](N=[N+]=[N-])[C@@H](CO)O2)c(=O)[nH]c1=O [AZT]
inhibitory activity (in words) (HIV-1 (R5 tropic virus)): exhibited inhibitory activity | inhibitory activity (in words) (HIV-1 (X4 tropic virus)): exhibited inhibitory activity

CCOC(=O)C1=C[C@@H](OC(CC)CC)[C@H](NC(C)=O)[C@@H](N)C1 [Tamiflu, Oseltamivir]
EC50 [1]: 4.5 nM

c1cc(CN2CCCNCCNCCCNCC2)ccc1CN1CCCNCCNCCCNCC1 [AMD3100]
inhibitory activity (in words) (HIV-1 (R5 tropic virus)): only against CXCR4 trophic virus | EC50 (HIV-1 (X4 tropic virus); Human immunodeficiency virus 1): 2.05 nM

Cc1ccc(-c2ccc3c(c2)C=C(C(=O)Nc2ccc(C[N+](C)(C)C4CCOCC4)cc2)CCC3)cc1.[Cl-] [Tak-779]
EC50 (HIV-1 (R5 tropic virus)): 0.56 nM | inhibitory activity (in words) (HIV-1 (X4 tropic virus)): only against CCR5 trophic virus

O=P1(N(CCCl)CCCl)NCCCO1 (stereo not drawn) [Cyclophosphamide]
PRIMARY HA TITRE ON DAY 7 [2]: 0.33 | SECONDARY HA TITRE ON DAY 14 [2]: 6.67
